Where “and” joins values, the source holds several entries; their conditions need not be identical. Equal values may be shown once.
Assays:
[1] = test system: prethrombin-2 (S195A mutant); assay: Rapid kinetics (stopped-flow) of FPR binding to prethrombin-2
Text: Rapid kinetics of FPR binding to thrombin resolved the two independent relaxations (Equations 3 and 4) for CS and the four independent rate constants. On the other hand, similar measurements for prethrombin-2 produced only a saturable relaxation increasing with [FPR] (Fig. 2A) ([30]), thereby preventing resolution of the four independent constants and a full comparison with the mature protease thrombin. This situation provides an ideal test for application of the method based on Equation 11. The saturable relaxation for FPR binding to prethrombin-2 increases from α(0) = […] to α(∞) = 150 ± 20 s^−1, with a midpoint xm = 200 ± 20 μM and α(xm) = 88 ± 9 s^−1 (Fig. 2A and Table 2). […] Interpretation of the saturable relaxation in terms of CS gives k12 = 150 ± 20 s^−1 and koff = 25 ± 3 s^−1. Application of Equation 11 then yields kon = 4.0 ± 0.4 μM^−1s^−1 and Equation 9 gives αˆ(0)=k12+k21 = 890 ± 90 s^−1, so k21 = 740 ± 70 s^−1 (Table 2). The value of kon is almost identical to that reported for the mature protease thrombin (2.6 ± 0.3 μM^−1s^−1), whilst the value of koff is 40-fold higher (25 ± 3 s^−1 versus 0.60 ± 0.06 s^−1) ([30]). […] The conclusion is independent of whether FPR binding to prethrombin-2 is interpreted according to CS or IF. Application of the conversion formulas in Table 1 gives rate constants for IF equal to kon = 4.0 ± 0.4 μM^−1s^−1, koff = 765 ± 80 s^−1, k23 = 120 ± 10 s^−1, and k32 = 29 ± 3 s^−1 (Table 2), thereby making the contribution of a decreased rate of dissociation in the protease even more evident. Importantly, the two sets of rate constants for IF and CS yield the same value for Kd,app (Table 2), as shown by application of Equation 10 and the conversion formulas in Table 1. The importance of koff in setting the difference between ligand binding to prethrombin-2 and thrombin was anticipated by previous studies ([30]). The method based on Equation 11 provides a quantitative estimate of the difference and adds rigor to previous conclusions.
(§1) Figure 2 Binding of FPR to thrombin zymogens.A, rapid kinetics of FPR binding to the zymogens prothrombin (closed circles) and prethrombin-2 (open circles), showing a saturable relaxation associated with the interaction. The lack of information on a fast relaxation increasing linearly with [FPR] prevented assignment of the value of kon in the original report ([30]). Curves were drawn with the empirical expression [α(0)xm+α(∞)x]/(xm+x) , where x =[FPR], with best-fit parameters listed in Table 2. B, fractional saturation of FPR binding to prothrombin (closed circles) and prethrombin-2 (open circles). These values, together with the parameters derived from the plots in panel A, allow for derivation of the value of kon from Equation 11. […] Data in panels A and B were taken from ([30]) and were obtained under the following experimental conditions: 400 mM ChCl, 50 mM Tris, 0.1% PEG8000, pH 8, at 15 °C. CS, conformational selection; FPR, H-D-Phe-Pro-Arg-p-nitroanilide; IF, induced fit.
(§2) The data analyzed in this study, that is, FPR binding to prethrombin-2, prothrombin, and thrombin (Figs. 2, A and B and 3, A and B) were taken from ([30]) without modification. The methodology used to produce the recombinant proteins, measure FPR binding by stopped-flow or equilibrium titrations is reported in ([30]) and references therein. Values of the slow relaxation α(x) (Fig. 1, A and B, 2A and 3A) are measured by stopped-slow as a function of the ligand concentration and derived from fit of the time evolution of the interaction according to the expression ([1])(12) A(x,t)=A0(x)+A1(x)exp{−α(x)t}

[2] = molecular target: prethrombin-2 (S195A mutant); set-up: method as in PMID 29511224; conditions: fluorescence titration at equilibrium; 400 mM ChCl, 50 mM Tris, 0.1% PEG8000, pH 8, 15 °C; read-out: Kd,app; cited from earlier work
[3] = test system: prothrombin; assay: Rapid kinetics (stopped-flow) of FPR binding to prothrombin; conditions: model independent, fit of data from ref 30
Text: as §1
The method also offers a simple test of whether the experimental data under consideration require more complex binding mechanisms than IF or CS. This is an important property of the method that may prompt reconsideration of current interpretations of ligand binding in terms of IF or CS made from analysis of a single saturable relaxation. The denominator of Equation 11 introduces a constraint on the relative values of Kd,app and xm . If the resulting term is negative, the model independent parameters (Equations (5), (6), (7) and 10) of the slow relaxation cannot be interpreted in terms of IF or CS. The data describing the kinetic relaxation (Fig. 1, A and B) and equilibrium binding (Fig. 1C) become incompatible when interpreted with Equations 9 and 10 and more elaborate mechanisms should be considered. We illustrate this point for the case of FPR binding to prothrombin, which is the physiological zymogen precursor of thrombin ([23]). Prothrombin is composed of a protease domain identical to prethrombin-2 linked to additional kringles and Gla domains that are shed during activation to thrombin by prothrombinase in the penultimate step of the coagulation cascade ([23], [31]). Because prothrombin and prethrombin-2 share the same protease domain, binding of FPR may be expected to take place with a similar affinity and mechanism in the two zymogens. […]
as §2, with “The methodology used to produce the recombinant proteins, measure FPR binding by stopped-flow or equilibrium titrations is reported in ([30]) and references therein.” left out

[4] = test system: thrombin mutant S195A; set-up: method as in PMID 29511224; conditions: cited from earlier work
[5] = molecular target: prothrombin; set-up: method as in PMID 29511224; conditions: fluorescence titration at equilibrium; 400 mM ChCl, 50 mM Tris, 0.1% PEG8000, pH 8, 15 °C; read-out: Kd,app; cited from earlier work
[6] = molecular target: thrombin mutant S195A; set-up: method as in PMID 29511224; conditions: fluorescence titration at equilibrium; 400 mM ChCl, 50 mM Tris, 0.1% PEG8000, pH 8, 15 °C; read-out: Kd,app; cited from earlier work
[7] = test system: thrombin mutant S195A; assay: Equilibrium titration of intrinsic fluorescence, FPR binding to thrombin; conditions: thrombin versus prethrombin-2
Text: Figure 3 Binding of FPR to thrombin.A, rapid kinetics of FPR binding to thrombin showing the fast ( α1 ) and slow ( α2 ) relaxations defining a mechanism of binding consistent with IF or CS (see also Fig. 1A). Continuous lines depict Equations 3 and 4 in the original report ([30]) with best-fit parameter values of Equation 1 or Equation 2 listed in Table 2. […] The discontinuous line for the slow relaxation was drawn with the empirical expression [α(0)xm+α(∞)x]/(xm+x) , where x = [FPR], with best-fit parameters listed in Table 2. The discontinuous line for the fast relaxation was drawn using Equation 3 with the four independent rate constants obtained from application of Equation 11 (Table 2). […] The four independent rate constants derived from application of the method compare well with the values determined from application of Equations 3 and 4 in the original report ([30]). […]
The value of Kd,app is obtained from titration of intrinsic fluorescence at equilibrium (Figs. 2B and 3B) according to the expression(13) F(x)=F0Kd,app+F1x/Kd,app+x=F0(1−ϑ)+F1ϑ where ϑ=x/(Kd,app+x) is the fractional saturation (Figs. 1C, 2B and 3B). […] At each value of the ligand concentration, the change in absorbance from the initial ( t=0 ) to final ( t=∞ ) state gives the equilibrium reading equivalent to F(x) in Equation 13.

[8] = IF, conversion formulas of Table 1
[9] = model independent, pH 8, 15 °C, fit of data from ref 30
[10] = CS, from analysis of two relaxations

koffIF [1, 8]: 765 ± 80 s⁻¹
konIF [1, 8]: 4e+06 ± 400000 M⁻¹ s⁻¹
kon ([1]; model independent, derived from Equation 11): 4e+06 ± 400000 M⁻¹ s⁻¹
α(0), lower asymptote of slow relaxation ([1]; model independent, 400 mM ChCl, 50 mM Tris, 0.1% PEG8000, pH 8, 15 °C, fit of data from ref 30): 25 ± 0.3 s⁻¹ and 25 ± 2 s⁻¹
xm, midpoint of the slow relaxation [1, 9]: 200 ± 20 µM
α(xm), slow relaxation at midpoint [1, 9]: 88 ± 9 s⁻¹
α(∞), asymptote of slow relaxation [1, 9]: 150 ± 20 s⁻¹ and 150 ± 10 s⁻¹
α(0), asymptote of slow relaxation ([3]; 400 mM ChCl, 50 mM Tris, 0.1% PEG8000, pH 8, 15 °C): 45 ± 4 s⁻¹ and 45 ± 5 s⁻¹
xm, midpoint of the slow relaxation ([3]; pH 8, 15 °C): 54 ± 5 µM
α(xm), slow relaxation at midpoint ([3]; pH 8, 15 °C): 26 ± 3 s⁻¹
α(∞), asymptote of slow relaxation ([3]; pH 8, 15 °C): 6.9 ± 0.7 s⁻¹
difference in equilibrium binding affinity between prethrombin-2 and thrombin [7]: > 100 fold
Compound: N=C(N)NCCC[C@H](NC(=O)[C@@H]1CCCN1C(=O)[C@H](N)Cc1ccccc1)C(=O)Nc1ccc([N+](=O)[O-])cc1 [FPR, H-D-Phe-Pro-Arg-p-nitroanilide]
Kd [2]: 37 ± 4 µM
k12 [4, 10]: 16 ± 1 s⁻¹
k21 [4, 10]: 3.8 ± 0.8 s⁻¹
koffCS [4, 10]: 0.6 ± 0.1 s⁻¹
konCS [4, 10]: 2.6e+06 ± 300000 M⁻¹ s⁻¹
k23 ([4]; IF): 13 ± 1 (13 ± 1) s^−1
k32 ([4]; IF): 2.6 ± 0.3 s⁻¹
koffIF ([4]; IF): 4.4 ± 0.4 s⁻¹
konIF ([4]; IF): 2.6e+06 ± 300000 M⁻¹ s⁻¹
Kd [5]: 195 ± 20 µM
Kd [6]: 0.28 ± 0.02 µM
